Experimental data as given in patent US20110052562A1, “BENZIMIDAZOLES AND ANALOGS AS RHO KINASE INHIBITORS” (The Scripps Research Institute, priority 2007, published 2011).

Experiments:
Rhok2 = Rhok2 (Homo sapiens, UniProt O75116); experiment: Enzymatic Rho kinase assay (Kinase-Glo luminescence, S6 peptide substrate); format: biochemical; conditions: Rhok2 enzyme, 2 hours at 25 degrees Celsius
Protocol: Enzymatic Rho kinase (ROCK I and ROCK II) Assays.
The assay is based on ability of Rhok2 to phosphorylate a specific peptide sequence derived from its substrate—ribosomal protein S6 (amino acid residues 229-239, (LCB-[…]-NH2)). Rhok2 uses ATP as a donor of phosphate for the phosphorylation of the substrate, which leads to the depletion of ATP in the reaction mix. An assay kit (“Kinase-Glo”, Promega) was used to quantify enzyme activity. Using this kit, residual amounts of ATP are measured by a secondary enzymatic reaction, through which luciferase utilizes the remaining ATP to produce luminescence. Luminescent signal is directly proportional to ATP concentration and inversely proportional to Rhok2 activity.
This dose response assay was conducted in 1536 well plate format. Each concentration was tested nominally in triplicate. […] Plates were incubated for 10 minutes and luminescence was read on Perkin-Elmer Viewlux for 60 seconds. […] The percent inhibition for each well has been calculated as follows: % inhibition=(test compound−median_negative_control)/(median_positive_control−median_negative_control)*100 where the positive control is Y-27632 (13 micromolar) and negative control is DMSO only. […]

smooth muscle cells = experiment: Myosin Light Chain Double Phosphorylation Assay (ppMLC, cell assay); format: cell-based; conditions: serum starved smooth muscle cells, compound 1 h, LPA 30 min
Protocol: Myosin Light Chain Double Phosphorylation Assays (ppMLC, cell assay).
Serum starved smooth muscle cells were incubated with compound for 1 h before induction of myosin light chain phosphorylation by LPA for 30 min. Cells were washed and fixed before staining for phosphorylated myosin light chain and DNA. Phosphorylation status was quantitated with the LI-COR Odyssey Imager. […] For example, the IC50 of Example 169 is 6 nM.

N2a cells = experiment: Neurite Length Assay (N2a, cell assay); format: cell-based; conditions: Mus musculus, neurite retraction induced by 5 uM LPA
Protocol: Neurite Length Assay (N2a, Cell Assay).
N2a cells are maintained in DMEM/FBS at 37 C and 5% CO2. For the experiment the cells were plated on a poly-D-lysine coated 96-well tissue culture plate. After attachment, cell differentiation was induced for 2 days by addition of 10 uM retinoic acid. Cells were treated for 1 h with a dilution of compounds in 0.3% DMSO final concentration before neurite retraction was induced by 5 uM LPA. Cells were stained for tubulin and nuclei and images were acquired on a INCell 1000 workstation. Images were analyzed using the developer toolbox and neurite length was quantitated. […] For example, the IC50 of Example 169 is 4 nM.

Chain of Rhok2 (O75116 whole entry): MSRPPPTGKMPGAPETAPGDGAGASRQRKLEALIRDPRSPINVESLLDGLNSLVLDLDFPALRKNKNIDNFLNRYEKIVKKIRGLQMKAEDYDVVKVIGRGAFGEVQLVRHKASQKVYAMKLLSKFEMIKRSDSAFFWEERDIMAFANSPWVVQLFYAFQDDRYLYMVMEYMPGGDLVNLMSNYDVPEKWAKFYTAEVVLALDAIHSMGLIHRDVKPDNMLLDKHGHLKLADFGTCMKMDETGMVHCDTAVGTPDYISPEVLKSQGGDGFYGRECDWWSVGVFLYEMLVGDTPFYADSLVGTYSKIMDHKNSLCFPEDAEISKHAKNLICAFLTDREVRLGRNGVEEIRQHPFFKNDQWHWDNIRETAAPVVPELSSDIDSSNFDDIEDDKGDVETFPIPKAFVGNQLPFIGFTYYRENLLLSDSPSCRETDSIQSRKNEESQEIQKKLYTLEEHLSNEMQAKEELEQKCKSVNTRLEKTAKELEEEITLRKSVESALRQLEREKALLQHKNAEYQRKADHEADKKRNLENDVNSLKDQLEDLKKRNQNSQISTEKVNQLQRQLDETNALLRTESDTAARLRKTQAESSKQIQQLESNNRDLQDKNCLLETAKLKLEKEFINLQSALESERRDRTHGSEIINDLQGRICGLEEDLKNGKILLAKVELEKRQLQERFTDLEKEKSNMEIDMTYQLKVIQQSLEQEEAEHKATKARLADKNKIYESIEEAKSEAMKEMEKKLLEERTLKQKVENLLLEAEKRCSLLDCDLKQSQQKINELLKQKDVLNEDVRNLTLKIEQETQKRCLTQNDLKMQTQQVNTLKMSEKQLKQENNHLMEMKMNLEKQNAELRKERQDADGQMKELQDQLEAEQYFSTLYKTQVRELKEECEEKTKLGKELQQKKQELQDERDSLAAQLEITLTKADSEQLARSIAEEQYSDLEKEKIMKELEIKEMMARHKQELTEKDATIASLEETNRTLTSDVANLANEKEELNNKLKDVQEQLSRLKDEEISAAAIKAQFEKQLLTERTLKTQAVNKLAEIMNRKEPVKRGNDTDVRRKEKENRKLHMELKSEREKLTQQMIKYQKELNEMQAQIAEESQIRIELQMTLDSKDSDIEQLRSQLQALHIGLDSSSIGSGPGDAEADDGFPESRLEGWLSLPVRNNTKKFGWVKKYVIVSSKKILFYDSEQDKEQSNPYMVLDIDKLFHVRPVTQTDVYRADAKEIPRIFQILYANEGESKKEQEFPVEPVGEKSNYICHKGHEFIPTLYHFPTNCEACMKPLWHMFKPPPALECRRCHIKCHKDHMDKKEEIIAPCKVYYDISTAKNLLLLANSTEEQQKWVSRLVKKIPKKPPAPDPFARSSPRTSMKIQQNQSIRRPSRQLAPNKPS

IC50 (Rhok2): 6 nM | IC50 (smooth muscle cells): 6 nM | IC50 (N2a cells): 4 nM
Compound: COc1ccc2c(c1)CC(c1nc3cc(-c4ccncc4)cc(F)c3[nH]1)CO2 (stereo not drawn) [Example 169, 7-fluoro-2-(6-methoxychroman-3-yl)-5-(pyridin-4-yl)-1H-benzo[d]imidazole]
